Measured values: the supplement of paper PMC11061612

Legend:
Experiment in all cases: Bliss excess, mean over the matrix (fraction); higher = more synergy
[1] = tested on: LN-18 (Glioblastoma)
Summary of the method: (§1)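 Cell lines grown in DMEM/F12 or RPMI with 10% FBS were plated in 1536-well plates and held 24 hours at 37°C, 5% CO2 before 72 hours of exposure to two-drug dose matrices, with DMSO typically at 0.2%. CellTiter-Glo 2.0 luminescence gave viability, which was converted to inhibition. Vehicle wells were set to 0 and blank wells to 1. Combination Emax is the second-highest inhibition in the matrix, and Bliss excess is the observed combination effect minus the expected EA + EB − EA·EB, where EA and EB are the single-agent effects.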

[2] = tested on: TC-71 (Ewing's Sarcoma)
Summary of the method: as §1

[3] = tested on: TE-6 (Esophageal Squamous Cell Carcinoma)
Summary of the method: as §1

[4] = tested on: MEL-JUSO (Melanoma)
Summary of the method: as §1

[5] = tested on: DiFi (Colorectal Carcinoma)
Summary of the method: as §1

[6] = tested on: BL-41 (Burkitt's Lymphoma)
Summary of the method: as §1

[7] = tested on: CHP-212 (Neuroblastoma)
Summary of the method: as §1

[8] = tested on: KYSE-180 (Esophageal Squamous Cell Carcinoma)
Summary of the method: as §1

[9] = tested on: COLO-678 (Colorectal Carcinoma)
Summary of the method: as §1

[10] = tested on: MKN28 (Gastric Carcinoma)
Summary of the method: as §1

[11] = tested on: MFM-223 (Breast Carcinoma)
Summary of the method: as §1

[12] = tested on: NCI-H1792 (Lung Adenocarcinoma)
Summary of the method: as §1

[13] = tested on: CAMA-1 (Breast Carcinoma)
Summary of the method: as §1

[14] = tested on: KM12 (Colorectal Carcinoma)
Summary of the method: as §1

[15] = tested on: SW1417 (Colorectal Carcinoma)
Summary of the method: as §1

[16] = tested on: TOV-112D (Ovarian Carcinoma)
Summary of the method: as §1

[17] = tested on: PANC-08-13 (Pancreatic Carcinoma)
Summary of the method: as §1

[18] = tested on: DND-41 (T-Lymphoblastic Leukemia)
Summary of the method: as §1

[19] = tested on: NCI-H847 (Small Cell Lung Carcinoma)
Summary of the method: as §1

[20] = tested on: WIL2-NS (Non-Cancerous)
Summary of the method: as §1

Structure (SMILES)	Bliss excess [1]	Bliss excess [2]	Bliss excess [3]	Bliss excess [4]	Bliss excess [5]	Bliss excess [6]	Bliss excess [7]	Bliss excess [8]	Bliss excess [9]	Bliss excess [10]	Bliss excess [11]	Bliss excess [12]	Bliss excess [13]	Bliss excess [14]	Bliss excess [15]	Bliss excess [16]	Bliss excess [17]	Bliss excess [18]	Bliss excess [19]	Bliss excess [20]
COc1cccc(OCCCN)c1-c1cc(Nc2cnc(C#N)cn2)n[nH]1 [Prexasertib] + O=C(c1cc(Cc2n[nH]c(=O)c3ccccc23)ccc1F)N1CCN(C(=O)C2CC2)CC1 [Olaparib] (first compound max 1 µM, 7x7, partner max 10 µM)	-0.0368	-0.017	-0.0452	-0.0741	-0.0265	-0.0346	-0.0592	-0.0371	-0.0157	-0.133	-0.124	-0.0161	-0.188	-0.0192	-0.0459	0.0277	-0.076	-0.101	-0.0027	-0.0174
CC1(C)CCC(CN2CCN(c3ccc(C(=O)NS(=O)(=O)c4ccc(NCC5CCOCC5)c([N+](=O)[O-])c4)c(Oc4cnc5[nH]ccc5c4)c3)CC2)=C(c2ccc(Cl)cc2)C1 [Venetoclax] + Cc1cc2ncnn2cc1Nc1ncc2c(n1)n(C1CCOCC1)c(=O)n2C [AZD7648] (first compound max 1 µM, 7x7, partner max 10 µM)	0.045	-0.0333	-0.0041	-0.0235	-0.0389	-0.0007	-0.0624	0.0053	-0.0531	-0.011	-0.0672	-0.0591	-0.0266	-0.0129	-0.0705	-0.0253	-0.0576	-0.0221	0.0002	-0.0684
CN(CCO)CC[C@H](CSc1ccccc1)Nc1ccc(S(=O)(=O)NC(=O)c2ccc(N3CCC([C@@H](O)c4ccccc4-c4ccc(Cl)cc4)CC3)cc2)cc1S(=O)(=O)C(F)(F)F [AZD4320] + CCN(CCO)CCCOc1ccc2c(Nc3cc(CC(=O)Nc4cccc(F)c4)[nH]n3)ncnc2c1 [AZD2811] (first compound max 1 µM, 7x7, partner max 1 µM)	-0.0187	-0.0299	0.0228	0.0289	-0.013	-0.0172	0.0016	0.0189	-0.0247	-0.0107	-0.0022	-0.0267	0.0961	0.0173	-0.0306	0.0419	-0.0166	0.0382	0.0014	0.0006
CC(=O)Nc1cccc(-n2c(=O)n(C3CC3)c(=O)c3c(Nc4ccc(I)cc4F)n(C)c(=O)c(C)c32)c1 [Trametinib] + Cc1nc(-c2cn3c(n2)-c2ccc(-c4cnn(C(C)(C)C(N)=O)c4)cc2OCC3)n(C(C)C)n1 [Taselisib] (first compound max 1 µM, 7x7, partner max 10 µM)	0.0432	0.136	0.0911	0.12	0.107	0.0485	0.0363	0.0886	-0.0114	0.0966	-0.0174	0.109	-0.0565	0.0284	-0.0045	0.176	0.132	0.164	0.0603	0.174
Cc1cc2ncnn2cc1Nc1ncc2c(n1)n(C1CCOCC1)c(=O)n2C [AZD7648] + C=CCn1c(=O)c2cnc(Nc3ccc(N4CCN(C)CC4)cc3)nc2n1-c1cccc(C(C)(C)O)n1 [AZD1775] (first compound max 10 µM, partner max 1 µM)	0.0161	0.055	-0.07	0.0263	-0.0013	-0.0511	0.0249	0.0302	-0.0224	0.0495	-0.0357	-0.0274	-0.0068	-0.0388	-0.0328	-0.0325	-0.0266	-0.0109	-0.0216	-0.0038
COc1cccc(OCCCN)c1-c1cc(Nc2cnc(C#N)cn2)n[nH]1 [Prexasertib] + Cc1cc2ncnn2cc1Nc1ncc2c(n1)n(C1CCOCC1)c(=O)n2C [AZD7648] (first compound max 1 µM, 7x7, partner max 10 µM)	-0.0198	-0.0419	0.001	-0.0383	-0.0046	-0.0265	-0.0467	-0.0431	-0.0384	-0.0172	0.0065	-0.0227	-0.0206	-0.0399	0.001	-0.0241	-0.0089	-0.0979	0.0131	-0.0285
Cc1c2c(nn1C)CSCc1cc(n(C)n1)CSc1cc(c3ccccc3c1)OCCCc1c(C(=O)O)n(C)c3c-2c(Cl)ccc13 [AZD5991] + C1CN(CCC1(C(=O)N[C@@H](CCO)C2=CC=C(C=C2)Cl)N)C3=NC=NC4=C3C=CN4 [Capivasertib] (first compound max 1 µM, 7x7, partner max 3 µM)	0.0306	0.0256	-0.0177	-0.0203	0.0384	0.0066	-0.0066	0.0306	-0.0078	-0.0198	0.0005	-0.019	0.0993	0.0136	-0.0021	-0.0181	-0.0235	0.0038	0.0714	-0.0169
Cc1cc2ncnn2cc1Nc1ncc2c(n1)n(C1CCOCC1)c(=O)n2C [AZD7648] + C[C@@H]1COCCN1C2=NC(=NC(=C2)C3(CC3)[S@](=N)(=O)C)C4=C5C=CNC5=NC=C4 [AZD6738] (first compound max 10 µM, 7x7, partner max 10 µM)	-0.0084	0.041	0.0697	0.0289	0.0639	-0.0052	-0.0035	0.0394	-0.0346	-0.0081	-0.0127	-0.0047	-0.0631	0.0057	0.0175	0.0024	0.0227	-0.01	0.0519	0.0015
Cc1c2c(nn1C)CSCc1cc(n(C)n1)CSc1cc(c3ccccc3c1)OCCCc1c(C(=O)O)n(C)c3c-2c(Cl)ccc13 [AZD5991] + C[C@@H](Nc1cc(F)cc(F)c1)c1cc(C(=O)N(C)C)cc2c(=O)cc(N3CCOCC3)oc12 [AZD8186] (first compound max 1 µM, 7x7, partner max 3 µM)	0.0079	0.0276	-0.0515	0.0086	0.0406	-0.0096	-0.0203	0.0187	-0.0613	-0.0326	-0.047	-0.0108	0.0868	0.0121	-0.0342	-0.0028	0.0187	-0.0249	0.0632	-0.0749
CC1(C)CCC(CN2CCN(c3ccc(C(=O)NS(=O)(=O)c4ccc(NCC5CCOCC5)c([N+](=O)[O-])c4)c(Oc4cnc5[nH]ccc5c4)c3)CC2)=C(c2ccc(Cl)cc2)C1 [Venetoclax] + C1CN(CCC1(C(=O)N[C@@H](CCO)C2=CC=C(C=C2)Cl)N)C3=NC=NC4=C3C=CN4 [Capivasertib] (first compound max 1 µM, 7x7, partner max 3 µM)	-0.0374	-0.0684	0.0217	-0.0436	-0.022	-0.0058	-0.0467	-0.0208	-0.118	-0.0455	-0.0258	-0.0549	-0.056	-0.041	-0.0744	-0.0285	-0.0608	0.0019	0.0062	-0.0145
CN(CCO)CC[C@H](CSc1ccccc1)Nc1ccc(S(=O)(=O)NC(=O)c2ccc(N3CCC([C@@H](O)c4ccccc4-c4ccc(Cl)cc4)CC3)cc2)cc1S(=O)(=O)C(F)(F)F [AZD4320] + C=CCn1c(=O)c2cnc(Nc3ccc(N4CCN(C)CC4)cc3)nc2n1-c1cccc(C(C)(C)O)n1 [AZD1775] (first compound max 1 µM, partner max 1 µM)	0.0152	0.0339	0.0061	0.042	0.007	0.0361	-0.0137	0.0258	-0.0459	-0.0545	-0.0103	0.0128	-0.0421	-0.0316	-0.106	-0.0106	-0.0019	0.049	0.0494	0.0252
CC1(C)CCC(CN2CCN(c3ccc(C(=O)NS(=O)(=O)c4ccc(NCC5CCOCC5)c([N+](=O)[O-])c4)c(Oc4cnc5[nH]ccc5c4)c3)CC2)=C(c2ccc(Cl)cc2)C1 [Venetoclax] + C[C@@H]1COCCN1C2=NC(=NC(=C2)C3(CC3)[S@](=N)(=O)C)C4=C5C=CNC5=NC=C4 [AZD6738] (first compound max 1 µM, 7x7, partner max 10 µM)	-0.0469	-0.0299	-0.0127	-0.013	-0.0183	0.0001	-0.0419	-0.0173	-0.0293	-0.009	-0.0604	-0.018	-0.105	0.0189	-0.0247	-0.0251	-0.0482	0.0191	0.0082	-0.0346
CC1(C)CCC(CN2CCN(c3ccc(C(=O)NS(=O)(=O)c4ccc(NCC5CCOCC5)c([N+](=O)[O-])c4)c(Oc4cnc5[nH]ccc5c4)c3)CC2)=C(c2ccc(Cl)cc2)C1 [Venetoclax] + C[C@@H](Nc1cc(F)cc(F)c1)c1cc(C(=O)N(C)C)cc2c(=O)cc(N3CCOCC3)oc12 [AZD8186] (first compound max 1 µM, 7x7, partner max 3 µM)	-0.0273	-0.0381	-0.04	-0.0487	-0.021	0.0218	-0.0118	-0.0031	-0.0975	-0.0248	-0.0187	-0.035	-0.0706	-0.0327	-0.0747	-0.0205	-0.031	0.0053	0.106	-0.0168
Cc1cc2ncnn2cc1Nc1ncc2c(n1)n(C1CCOCC1)c(=O)n2C [AZD7648] + O=C(c1cc(Cc2n[nH]c(=O)c3ccccc23)ccc1F)N1CCN(C(=O)C2CC2)CC1 [Olaparib] (first compound max 10 µM, 7x7, partner max 10 µM)	-0.0351	-0.0106	-0.0419	-0.0264	-0.0484	-0.0368	-0.0391	-0.0406	-0.0177	-0.0411	-0.0131	-0.033	-0.054	-0.035	-0.0597	-0.0285	-0.0538	0.0069	-0.0071	-0.0669
